Results taken from the supplement of paper PMC13207355.

Assays:
Conditions in all cases: exposure time: 72 h
E28 [1] = patient-derived glioblastoma stem cells of classical subtype; assay: phenotypic distance (Euclidean, principal components) from DMSO controls (arbitrary units); higher = stronger morphological change
FT3469 [2] = normal neural stem cell line; assay: as above
E21 [3] = patient-derived glioblastoma stem cells of mesenchymal subtype; assay: as above
E34 [4] = patient-derived glioblastoma stem cells of proneural subtype; assay: as above
E13 [5] = patient-derived glioblastoma stem cells of classical subtype; assay: as above
E57 [6] = patient-derived glioblastoma stem cells of mesenchymal subtype; assay: as above
E31 [7] = patient-derived glioblastoma stem cells of proneural subtype; assay: as above
E28 [8] = assay: surviving fraction (nuclei count normalised to DMSO); higher = more cells surviving (less toxic)
FT3469 [9] = assay: as above
E21 [10] = assay: as above
E34 [11] = assay: as above
E13 [12] = assay: as above
E57 [13] = assay: as above
E31 [14] = assay: as above
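Wherever phenotypic distance (Euclidean, principal components) from DMSO controls is given: cell Painting imaging in 384-well plates, CellProfiler features reduced to at least 20 principal components, Euclidean distance versus same-plate DMSO vehicle wells (0.1% v/v), median over six images per well.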
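Wherever surviving fraction (nuclei count normalised to DMSO) is given: nuclei counted by high-content imaging of Hoechst-stained cells in laminin-coated 384-well plates, relative to 0.1% DMSO vehicle wells, with staurosporine as cell-death control.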

COC(=O)C[C@](O)(CCCC(C)(C)O)C(=O)O[C@@H]1C(OC)=C[C@]23CCCN2CCc2cc4c(cc2[C@H]13)OCO4 [Homoharringtonine]
Conditions	phenotypic distance	surviving fraction
E13 [5], 4.1 nM	1.66	–
E13 [5], 12.3 nM	2.13	–
E13 [5], 37 nM	4.35	–
E13 [5], 111.1 nM	3.97	–
E13 [5], 333.3 nM	5.67	–
E13 [5], 1000 nM	7.51	–
E13 [5], 3000 nM	8.63	–
E13 [12], 4.1 nM	–	0.73
E13 [12], 12.3 nM	–	0.702
E13 [12], 37 nM	–	0.367
E13 [12], 111.1 nM	–	0.401
E13 [12], 333.3 nM	–	0.316
E13 [12], 1000 nM	–	0.239
E13 [12], 3000 nM	–	0.0816
E21 [3], 4.1 nM	1.39	–
E21 [3], 12.3 nM	1.73	–
E21 [3], 37 nM	4.36	–
E21 [3], 111.1 nM	3.63	–
E21 [3], 333.3 nM	4.11	–
E21 [3], 1000 nM	5.37	–
E21 [3], 3000 nM	8.36	–
E21 [10], 4.1 nM	–	0.726
E21 [10], 12.3 nM	–	0.721
E21 [10], 37 nM	–	0.289
E21 [10], 111.1 nM	–	0.402
E21 [10], 333.3 nM	–	0.186
E21 [10], 1000 nM	–	0.179
E21 [10], 3000 nM	–	0.0999
E28 [1], 4.1 nM	1.42	–
E28 [1], 12.3 nM	1.38	–
E28 [1], 37 nM	2.63	–
E28 [1], 111.1 nM	1.37	–
E28 [1], 333.3 nM	2.87	–
E28 [1], 1000 nM	3.53	–
E28 [1], 3000 nM	4.17	–
E28 [8], 4.1 nM	–	0.694
E28 [8], 12.3 nM	–	0.573
E28 [8], 37 nM	–	0.334
E28 [8], 111.1 nM	–	0.41
E28 [8], 333.3 nM	–	0.336
E28 [8], 1000 nM	–	0.343
E28 [8], 3000 nM	–	0.282
E31 [7], 4.1 nM	1.9	–
E31 [7], 12.3 nM	2.41	–
E31 [7], 37 nM	3.5	–
E31 [7], 111.1 nM	4.14	–
E31 [7], 333.3 nM	4.68	–
E31 [7], 1000 nM	5.99	–
E31 [7], 3000 nM	5.88	–
E31 [14], 4.1 nM	–	0.502
E31 [14], 12.3 nM	–	0.372
E31 [14], 37 nM	–	0.226
E31 [14], 111.1 nM	–	0.218
E31 [14], 333.3 nM	–	0.209
E31 [14], 1000 nM	–	0.164
E31 [14], 3000 nM	–	0.171
E34 [4], 4.1 nM	1.44	–
E34 [4], 12.3 nM	1.62	–
E34 [4], 37 nM	2.68	–
E34 [4], 111.1 nM	3.86	–
E34 [4], 333.3 nM	3.89	–
E34 [4], 1000 nM	4.65	–
E34 [4], 3000 nM	6.65	–
E34 [11], 4.1 nM	–	0.844
E34 [11], 12.3 nM	–	0.873
E34 [11], 37 nM	–	0.505
E34 [11], 111.1 nM	–	0.553
E34 [11], 333.3 nM	–	0.434
E34 [11], 1000 nM	–	0.412
E34 [11], 3000 nM	–	0.337
E57 [6], 4.1 nM	1.28	–
E57 [6], 12.3 nM	2.53	–
E57 [6], 37 nM	4.58	–
E57 [6], 111.1 nM	4.46	–
E57 [6], 333.3 nM	6.69	–
E57 [6], 1000 nM	8.52	–
E57 [6], 3000 nM	8.81	–
E57 [13], 4.1 nM	–	0.931
E57 [13], 12.3 nM	–	0.677
E57 [13], 37 nM	–	0.207
E57 [13], 111.1 nM	–	0.215
E57 [13], 333.3 nM	–	0.102
E57 [13], 1000 nM	–	0.0784
E57 [13], 3000 nM	–	0.0251
FT3469 [2], 4.1 nM	1.22	–
FT3469 [2], 12.3 nM	1.49	–
FT3469 [2], 37 nM	1.36	–
FT3469 [2], 111.1 nM	2	–
FT3469 [2], 333.3 nM	1.75	–
FT3469 [2], 1000 nM	2.95	–
FT3469 [2], 3000 nM	3.51	–
FT3469 [9], 4.1 nM	–	0.701
FT3469 [9], 12.3 nM	–	0.669
FT3469 [9], 37 nM	–	0.604
FT3469 [9], 111.1 nM	–	0.589
FT3469 [9], 333.3 nM	–	0.536
FT3469 [9], 1000 nM	–	0.53
FT3469 [9], 3000 nM	–	0.436

Nc1ccn([C@@H]2O[C@H](CO)[C@@H](O)[C@@H]2O)c(=O)n1 [Cytarabine]
Conditions	phenotypic distance	surviving fraction
E13 [5], 4.1 nM	0.95	–
E13 [5], 12.3 nM	1.36	–
E13 [5], 37 nM	1.77	–
E13 [5], 111.1 nM	2.69	–
E13 [5], 333.3 nM	4.49	–
E13 [5], 1000 nM	4.63	–
E13 [5], 3000 nM	4.85	–
E13 [12], 4.1 nM	–	0.893
E13 [12], 12.3 nM	–	0.843
E13 [12], 37 nM	–	0.673
E13 [12], 111.1 nM	–	0.645
E13 [12], 333.3 nM	–	0.42
E13 [12], 1000 nM	–	0.448
E13 [12], 3000 nM	–	0.389
E21 [3], 4.1 nM	1.63	–
E21 [3], 12.3 nM	2.01	–
E21 [3], 37 nM	2.73	–
E21 [3], 111.1 nM	3.44	–
E21 [3], 333.3 nM	4.54	–
E21 [3], 1000 nM	4.75	–
E21 [3], 3000 nM	5.65	–
E21 [10], 4.1 nM	–	0.787
E21 [10], 12.3 nM	–	0.77
E21 [10], 37 nM	–	0.649
E21 [10], 111.1 nM	–	0.533
E21 [10], 333.3 nM	–	0.339
E21 [10], 1000 nM	–	0.236
E21 [10], 3000 nM	–	0.154
E28 [1], 4.1 nM	1.71	–
E28 [1], 12.3 nM	1.24	–
E28 [1], 37 nM	1.72	–
E28 [1], 111.1 nM	2.6	–
E28 [1], 333.3 nM	2.45	–
E28 [1], 1000 nM	2.47	–
E28 [1], 3000 nM	3.27	–
E28 [8], 4.1 nM	–	0.778
E28 [8], 12.3 nM	–	0.775
E28 [8], 37 nM	–	0.542
E28 [8], 111.1 nM	–	0.586
E28 [8], 333.3 nM	–	0.474
E28 [8], 1000 nM	–	0.511
E28 [8], 3000 nM	–	0.333
E31 [7], 4.1 nM	1.02	–
E31 [7], 12.3 nM	1.8	–
E31 [7], 37 nM	1.75	–
E31 [7], 111.1 nM	3.19	–
E31 [7], 333.3 nM	3.48	–
E31 [7], 1000 nM	3.7	–
E31 [7], 3000 nM	4.49	–
E31 [14], 4.1 nM	–	0.861
E31 [14], 12.3 nM	–	0.637
E31 [14], 37 nM	–	0.463
E31 [14], 111.1 nM	–	0.312
E31 [14], 333.3 nM	–	0.149
E31 [14], 1000 nM	–	0.127
E31 [14], 3000 nM	–	0.126
E34 [4], 4.1 nM	1.44	–
E34 [4], 12.3 nM	1.82	–
E34 [4], 37 nM	2.13	–
E34 [4], 111.1 nM	3.16	–
E34 [4], 333.3 nM	3.2	–
E34 [4], 1000 nM	3.33	–
E34 [4], 3000 nM	3.62	–
E34 [11], 4.1 nM	–	0.892
E34 [11], 12.3 nM	–	0.803
E34 [11], 37 nM	–	0.723
E34 [11], 111.1 nM	–	0.687
E34 [11], 333.3 nM	–	0.555
E34 [11], 1000 nM	–	0.514
E34 [11], 3000 nM	–	0.466
E57 [6], 4.1 nM	2.41	–
E57 [6], 12.3 nM	3.28	–
E57 [6], 37 nM	4.72	–
E57 [6], 111.1 nM	6.26	–
E57 [6], 333.3 nM	7.13	–
E57 [6], 1000 nM	6.77	–
E57 [6], 3000 nM	6.62	–
E57 [13], 4.1 nM	–	0.687
E57 [13], 12.3 nM	–	0.62
E57 [13], 37 nM	–	0.443
E57 [13], 111.1 nM	–	0.316
E57 [13], 333.3 nM	–	0.179
E57 [13], 1000 nM	–	0.179
E57 [13], 3000 nM	–	0.161
FT3469 [2], 4.1 nM	1.13	–
FT3469 [2], 12.3 nM	1.74	–
FT3469 [2], 37 nM	1.5	–
FT3469 [2], 111.1 nM	1.8	–
FT3469 [2], 333.3 nM	2.13	–
FT3469 [2], 1000 nM	1.94	–
FT3469 [2], 3000 nM	1.69	–
FT3469 [9], 4.1 nM	–	0.758
FT3469 [9], 12.3 nM	–	0.684
FT3469 [9], 37 nM	–	0.654
FT3469 [9], 111.1 nM	–	0.753
FT3469 [9], 333.3 nM	–	0.684
FT3469 [9], 1000 nM	–	0.553
FT3469 [9], 3000 nM	–	0.62
